Reference: ChEMBL document CHEMBL1154267, “Imidazo[1,5-a][1,2,4]-triazolo[1,5-d][1,4]benzodiazepines as potent and highly selective GABAA alpha5 inverse agonists with potential for the treatment of cognitive dysfunction” (Bioorg Med Chem Lett, 2009)
≈ marks a conversion by molar mass, not a printed value.

Molecular target: GABA-A receptor; alpha-5/beta-3/gamma-2 (Homo sapiens) (UniProt P18507+P28472+P31644)
Assay: Inverse agonist activity at GABAA alpha-5-beta-3-gamma-2 receptor assessed as modulation of GABA-induced chloride ion flux by electrophysiology assay relative to GABA
Type: functional
Conditions: not given

Structure (SMILES)	Efficacy
Cc1cc(Cc2nc3n(n2)Cc2c(C)ncn2-c2ccc(O)cc2-3)on1	-7%
Cc1ccc2c(c1)-c1nc(Cc3cc(C)no3)nn1Cc1c(C)ncn1-2	-16%
Cc1cc(Cc2nc3n(n2)Cc2c(C)ncn2-c2ccc(Br)cc2-3)on1	-27%
Cc1ncn2c1Cn1nc(CC3CC3)nc1-c1cc(Br)ccc1-2	-12%
Cc1cc(Cc2nc3n(n2)Cc2c(C)ncn2-c2ccc(OC(F)(F)F)cc2-3)on1	-20%

Molecular target: T1, GABA-A receptor; alpha-3/beta-3/gamma-2 (Homo sapiens, UniProt P18507+P28472+P34903)
T1 sequence (P18507 whole entry): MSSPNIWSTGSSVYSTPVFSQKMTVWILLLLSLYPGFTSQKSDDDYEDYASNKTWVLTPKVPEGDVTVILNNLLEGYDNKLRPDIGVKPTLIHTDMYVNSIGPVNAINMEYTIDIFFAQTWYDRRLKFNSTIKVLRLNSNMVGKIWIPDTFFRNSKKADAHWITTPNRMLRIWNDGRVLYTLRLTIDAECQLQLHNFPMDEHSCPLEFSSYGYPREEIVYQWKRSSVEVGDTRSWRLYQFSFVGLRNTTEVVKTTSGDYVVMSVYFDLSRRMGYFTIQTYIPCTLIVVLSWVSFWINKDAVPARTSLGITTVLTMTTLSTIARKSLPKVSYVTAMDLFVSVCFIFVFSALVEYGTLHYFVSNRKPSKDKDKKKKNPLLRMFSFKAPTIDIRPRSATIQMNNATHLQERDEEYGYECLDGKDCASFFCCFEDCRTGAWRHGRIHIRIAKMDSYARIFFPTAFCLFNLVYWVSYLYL
T1 sequence (P28472 whole entry): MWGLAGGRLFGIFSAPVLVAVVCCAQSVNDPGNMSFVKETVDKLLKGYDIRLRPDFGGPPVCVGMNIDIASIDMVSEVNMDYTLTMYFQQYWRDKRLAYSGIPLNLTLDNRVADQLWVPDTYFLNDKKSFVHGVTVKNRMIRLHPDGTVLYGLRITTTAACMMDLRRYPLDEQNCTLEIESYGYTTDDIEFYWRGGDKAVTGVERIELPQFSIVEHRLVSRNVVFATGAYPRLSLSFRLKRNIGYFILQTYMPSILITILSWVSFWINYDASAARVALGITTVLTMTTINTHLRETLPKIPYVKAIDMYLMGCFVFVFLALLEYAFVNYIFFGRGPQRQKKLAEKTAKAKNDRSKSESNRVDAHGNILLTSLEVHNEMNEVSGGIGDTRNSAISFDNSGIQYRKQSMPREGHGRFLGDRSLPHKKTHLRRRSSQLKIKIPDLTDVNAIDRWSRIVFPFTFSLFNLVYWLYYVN
T1 sequence (P34903 whole entry): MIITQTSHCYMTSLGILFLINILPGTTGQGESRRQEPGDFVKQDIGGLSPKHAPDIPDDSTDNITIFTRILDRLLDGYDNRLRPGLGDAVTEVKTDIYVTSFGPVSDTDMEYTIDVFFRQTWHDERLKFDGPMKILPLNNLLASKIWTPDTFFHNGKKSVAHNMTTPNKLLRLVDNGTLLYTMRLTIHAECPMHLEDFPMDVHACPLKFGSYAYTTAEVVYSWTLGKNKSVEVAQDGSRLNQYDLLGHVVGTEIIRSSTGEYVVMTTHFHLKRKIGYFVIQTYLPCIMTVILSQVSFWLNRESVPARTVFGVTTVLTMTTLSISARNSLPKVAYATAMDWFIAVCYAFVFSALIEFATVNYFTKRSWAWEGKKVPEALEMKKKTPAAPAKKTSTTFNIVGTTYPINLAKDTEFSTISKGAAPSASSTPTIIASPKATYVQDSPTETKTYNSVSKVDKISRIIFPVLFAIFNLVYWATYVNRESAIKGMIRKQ
Assay: Displacement of [3H]flumazenil from GABAA alpha-3-beta-3-gamma-2 receptor
Type: protein-complex assay
Conditions: not given

Structure (SMILES)	Ki
Cc1cc(Cc2nc3n(n2)Cc2c(C)ncn2-c2ccc(Br)cc2-3)on1	0.073 µM
Cc1ncn2c1Cn1nc(CC3CC3)nc1-c1cc(Br)ccc1-2	0.407 µM
Cc1ncn2c1Cn1nc(C(C)(C)C)nc1-c1cc(Br)ccc1-2	1.21 µM

Test system: not listed separately
Assay: Solubility of the compound
Type: physicochemical
Conditions: not given

Structure (SMILES)	solubility
Cc1cc(Cc2nc3n(n2)Cc2c(C)ncn2-c2ccc(Br)cc2-3)on1	7 µg/mL (≈ 17 µM)

Test system: not listed separately
Assay: Volume of distribution at steady state in rat
Type: ADME, organism-based
Conditions: in vivo, read-out: Vdss

Structure (SMILES)	Vd
Cc1cc(Cc2nc3n(n2)Cc2c(C)ncn2-c2ccc(Br)cc2-3)on1	4.6 L/kg

Test system: not listed separately
Assay: Permeability by PAMPA
Type: ADME
Conditions: read-out: permeability

Structure (SMILES)	Papp
Cc1cc(Cc2nc3n(n2)Cc2c(C)ncn2-c2ccc(Br)cc2-3)on1	3.3 ×10⁻⁶ cm/s

Test system: not listed separately
Assay: Lipophilicity, log D at pH 7.4
Type: physicochemical
Conditions: buffer

Structure (SMILES)	logD
Cc1cc(Cc2nc3n(n2)Cc2c(C)ncn2-c2ccc(Br)cc2-3)on1	2.6

Molecular target: T2, GABA-A receptor; alpha-2/beta-3/gamma-2 (Homo sapiens, UniProt P18507+P28472+P47869)
T2 sequence (P18507 whole entry): T1 sequence (P18507 whole entry)
T2 sequence (P28472 whole entry): T1 sequence (P28472 whole entry)
T2 sequence (P47869 whole entry): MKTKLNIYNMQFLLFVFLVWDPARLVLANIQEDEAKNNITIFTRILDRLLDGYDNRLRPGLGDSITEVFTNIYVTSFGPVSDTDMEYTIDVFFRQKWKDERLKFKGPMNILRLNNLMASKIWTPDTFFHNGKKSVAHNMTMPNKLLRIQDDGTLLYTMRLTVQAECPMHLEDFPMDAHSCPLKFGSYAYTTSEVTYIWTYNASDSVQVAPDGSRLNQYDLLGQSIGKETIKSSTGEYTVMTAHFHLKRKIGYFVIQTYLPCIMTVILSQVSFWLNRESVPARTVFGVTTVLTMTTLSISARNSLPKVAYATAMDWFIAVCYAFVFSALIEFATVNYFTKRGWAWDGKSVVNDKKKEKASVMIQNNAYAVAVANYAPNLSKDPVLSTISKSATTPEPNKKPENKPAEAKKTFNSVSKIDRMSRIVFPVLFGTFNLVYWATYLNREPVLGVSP
Assay: Displacement of [3H]flumazenil from GABAA alpha-2-beta-3-gamma-2 receptor
Type: protein-complex assay
Conditions: not given

Structure (SMILES)	Ki
Cc1cc(Cc2nc3n(n2)Cc2c(C)ncn2-c2ccc(Br)cc2-3)on1	0.105 µM
Cc1ncn2c1Cn1nc(CC3CC3)nc1-c1cc(Br)ccc1-2	0.407 µM
Cc1ncn2c1Cn1nc(C(C)(C)C)nc1-c1cc(Br)ccc1-2	1.07 µM

Test system: not listed separately
Assay: Selectivity ratio of Ki for GABAA alpha-3-beta-3-gamma-2 receptor to Ki for GABAA alpha-5-beta-3-gamma-2 receptor
Conditions: not given

Structure (SMILES)	Ratio Ki
Cc1ccc2c(c1)-c1nc(Cc3cc(C)no3)nn1Cc1c(C)ncn1-2	360
Cc1cc(Cc2nc3n(n2)Cc2c(C)ncn2-c2ccc(Br)cc2-3)on1	122
Cc1cc(Cc2nc3n(n2)Cc2c(C)ncn2-c2ccccc2-3)on1	16
Cc1ncn2c1Cn1nc(CC3CC3)nc1-c1cc(Br)ccc1-2	2
Cc1cc(Cc2nc3n(n2)Cc2c(C)ncn2-c2ccc(OC(F)(F)F)cc2-3)on1	111

Test system: not listed separately
Assay: Ratio of drug level in brain to plasma in rat
Type: ADME, organism-based
Conditions: brain and plasma

Structure (SMILES)	Kp
Cc1cc(Cc2nc3n(n2)Cc2c(C)ncn2-c2ccc(Br)cc2-3)on1	0.2

Molecular target: T3, GABA-A receptor; alpha-1/beta-3/gamma-2 (Homo sapiens, UniProt P14867+P18507+P28472)
T3 sequence (P14867 whole entry): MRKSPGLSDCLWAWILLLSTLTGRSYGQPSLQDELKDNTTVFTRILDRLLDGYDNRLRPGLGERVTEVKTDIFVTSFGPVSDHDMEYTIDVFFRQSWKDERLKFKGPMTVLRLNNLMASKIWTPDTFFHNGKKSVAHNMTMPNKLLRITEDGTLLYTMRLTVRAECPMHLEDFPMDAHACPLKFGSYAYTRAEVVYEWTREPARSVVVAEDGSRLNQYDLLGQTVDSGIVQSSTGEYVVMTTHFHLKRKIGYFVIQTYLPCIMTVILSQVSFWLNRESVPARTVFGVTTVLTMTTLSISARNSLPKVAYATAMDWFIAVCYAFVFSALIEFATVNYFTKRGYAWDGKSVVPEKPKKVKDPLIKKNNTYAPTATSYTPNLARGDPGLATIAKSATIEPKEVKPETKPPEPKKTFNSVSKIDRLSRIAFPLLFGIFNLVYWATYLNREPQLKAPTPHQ
T3 sequence (P18507 whole entry): T1 sequence (P18507 whole entry)
T3 sequence (P28472 whole entry): T1 sequence (P28472 whole entry)
Assay: Displacement of [3H]flumazenil from GABAA alpha-1-beta-3-gamma-2 receptor
Type: protein-complex assay
Conditions: not given

Structure (SMILES)	Ki
Cc1cc(Cc2nc3n(n2)Cc2c(C)ncn2-c2ccc(Br)cc2-3)on1	0.188 µM
Cc1ncn2c1Cn1nc(CC3CC3)nc1-c1cc(Br)ccc1-2	0.538 µM
Cc1ncn2c1Cn1nc(C(C)(C)C)nc1-c1cc(Br)ccc1-2	3.16 µM

Test system: not listed separately
Assay: Half life in rat
Type: ADME, organism-based
Conditions: in vivo

Structure (SMILES)	half-life
Cc1cc(Cc2nc3n(n2)Cc2c(C)ncn2-c2ccc(Br)cc2-3)on1	1.4 h

Test system: not listed separately
Assay: Oral bioavailability in rat
Type: ADME, organism-based
Conditions: in vivo

Structure (SMILES)	bioavailability
Cc1cc(Cc2nc3n(n2)Cc2c(C)ncn2-c2ccc(Br)cc2-3)on1	34%

Molecular target: T4, GABA-A receptor; alpha-5/beta-3/gamma-2 (Homo sapiens, UniProt P18507+P28472+P31644)
T4 sequence (P18507 whole entry): T1 sequence (P18507 whole entry)
T4 sequence (P28472 whole entry): T1 sequence (P28472 whole entry)
T4 sequence (P31644 whole entry): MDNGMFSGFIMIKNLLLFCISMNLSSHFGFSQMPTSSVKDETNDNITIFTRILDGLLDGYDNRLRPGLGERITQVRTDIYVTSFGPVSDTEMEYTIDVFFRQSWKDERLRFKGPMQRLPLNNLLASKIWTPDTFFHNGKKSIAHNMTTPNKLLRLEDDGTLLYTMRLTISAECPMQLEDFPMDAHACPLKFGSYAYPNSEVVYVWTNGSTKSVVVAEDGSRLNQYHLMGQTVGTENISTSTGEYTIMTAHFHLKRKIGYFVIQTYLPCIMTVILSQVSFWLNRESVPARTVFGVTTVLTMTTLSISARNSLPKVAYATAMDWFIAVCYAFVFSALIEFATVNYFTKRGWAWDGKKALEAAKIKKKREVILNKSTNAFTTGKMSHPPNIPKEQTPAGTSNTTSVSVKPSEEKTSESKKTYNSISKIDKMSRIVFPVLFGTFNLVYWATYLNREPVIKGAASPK
Assay: Displacement of [3H]flumazenil from GABAA alpha-5-beta-3-gamma-2 receptor
Type: protein-complex assay
Conditions: not given

Structure (SMILES)	Ki
Cc1cc(Cc2nc3n(n2)Cc2c(C)ncn2-c2ccc(O)cc2-3)on1	0.0012 µM
Cc1ccc2c(c1)-c1nc(Cc3cc(C)no3)nn1Cc1c(C)ncn1-2	0.0008 µM
Cc1cc(Cc2nc3n(n2)Cc2c(C)ncn2-c2ccc(Br)cc2-3)on1	0.0006 µM
Cc1cc(Cc2nc3n(n2)Cc2c(C)ncn2-c2ccccc2-3)on1	0.0016 µM
Cc1ncn2c1Cn1nc(CC3CC3)nc1-c1cc(Br)ccc1-2	0.005 µM
Cc1ncn2c1Cn1nc(C(C)(C)C)nc1-c1cc(Br)ccc1-2	0.146 µM
Cc1cc(Cc2nc3n(n2)Cc2c(C)ncn2-c2ccc(OC(F)(F)F)cc2-3)on1	0.011 µM

Test system: not listed separately
Assay: Clearance in rat
Type: ADME, organism-based
Conditions: in vivo

Structure (SMILES)	clearance
Cc1cc(Cc2nc3n(n2)Cc2c(C)ncn2-c2ccc(Br)cc2-3)on1	39 mL/min/kg

Test system: not listed separately
Assay: Selectivity ratio of Ki for GABAA alpha-1-beta-3-gamma-2 receptor to Ki for GABAA alpha-5-beta-3-gamma-2 receptor
Conditions: not given

Structure (SMILES)	Ratio Ki
Cc1cc(Cc2nc3n(n2)Cc2c(C)ncn2-c2ccc(O)cc2-3)on1	99
Cc1ccc2c(c1)-c1nc(Cc3cc(C)no3)nn1Cc1c(C)ncn1-2	620
Cc1cc(Cc2nc3n(n2)Cc2c(C)ncn2-c2ccc(Br)cc2-3)on1	314
Cc1cc(Cc2nc3n(n2)Cc2c(C)ncn2-c2ccccc2-3)on1	57
Cc1ncn2c1Cn1nc(CC3CC3)nc1-c1cc(Br)ccc1-2	2
Cc1cc(Cc2nc3n(n2)Cc2c(C)ncn2-c2ccc(OC(F)(F)F)cc2-3)on1	68

Test system: not listed separately
Assay: Selectivity ratio of Ki for GABAA alpha-2-beta-3-gamma-2 receptor to Ki for GABAA alpha-5-beta-3-gamma-2 receptor
Conditions: not given

Structure (SMILES)	Ratio Ki
Cc1ccc2c(c1)-c1nc(Cc3cc(C)no3)nn1Cc1c(C)ncn1-2	332
Cc1cc(Cc2nc3n(n2)Cc2c(C)ncn2-c2ccc(Br)cc2-3)on1	174
Cc1cc(Cc2nc3n(n2)Cc2c(C)ncn2-c2ccccc2-3)on1	20
Cc1ncn2c1Cn1nc(CC3CC3)nc1-c1cc(Br)ccc1-2	2
Cc1cc(Cc2nc3n(n2)Cc2c(C)ncn2-c2ccc(OC(F)(F)F)cc2-3)on1	83
